ChEMBL document CHEMBL2021844, “The central valine concept provides an entry in a new class of non peptide inhibitors of the p53-MDM2 interaction” (Bioorg Med Chem Lett, 2012)

How the values were obtained:
[1] = biological target: Tumour suppressor p53/oncoprotein Mdm2 (Homo sapiens, UniProt Q00987); experiment: Inhibition of p53 (18 to 26)-MDM2 (2 to 188) interaction using fluorescent dye Cy5 by TR-FRET assay; assay type: protein assay
Protein Mdm4 = biological target: T1, Protein Mdm4 (Homo sapiens, UniProt O15151); experiment: Inhibition of p53 derived peptide binding to MDM4 using fluorescent dye Cy5 by TR-FRET assay
T1 sequence (O15151 whole entry): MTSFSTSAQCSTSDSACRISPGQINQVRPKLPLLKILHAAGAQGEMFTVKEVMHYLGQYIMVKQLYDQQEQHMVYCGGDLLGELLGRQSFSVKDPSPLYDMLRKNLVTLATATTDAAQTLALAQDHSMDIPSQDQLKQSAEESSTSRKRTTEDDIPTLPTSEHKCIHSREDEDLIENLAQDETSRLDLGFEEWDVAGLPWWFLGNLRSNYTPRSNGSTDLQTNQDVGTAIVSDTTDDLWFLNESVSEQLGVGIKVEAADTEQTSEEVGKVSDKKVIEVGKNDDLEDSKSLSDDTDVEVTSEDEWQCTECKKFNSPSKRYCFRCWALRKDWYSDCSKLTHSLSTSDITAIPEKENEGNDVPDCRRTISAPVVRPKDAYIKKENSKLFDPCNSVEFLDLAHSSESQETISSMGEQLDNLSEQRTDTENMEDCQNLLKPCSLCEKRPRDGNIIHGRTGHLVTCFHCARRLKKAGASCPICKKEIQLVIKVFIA

SJSA-1 [2] = experiment: Antiproliferative activity against human SJSA1 cells expressing p53; assay type: functional, cell-based
SJSA-1 [3] = experiment: Ratio of IC50 for human SJSA1 cells expressing p53 to IC50 for human p53 deficient SAOS2 cells; assay type: functional

Chain of Tumour suppressor p53/oncoprotein Mdm2 (P04637 whole entry): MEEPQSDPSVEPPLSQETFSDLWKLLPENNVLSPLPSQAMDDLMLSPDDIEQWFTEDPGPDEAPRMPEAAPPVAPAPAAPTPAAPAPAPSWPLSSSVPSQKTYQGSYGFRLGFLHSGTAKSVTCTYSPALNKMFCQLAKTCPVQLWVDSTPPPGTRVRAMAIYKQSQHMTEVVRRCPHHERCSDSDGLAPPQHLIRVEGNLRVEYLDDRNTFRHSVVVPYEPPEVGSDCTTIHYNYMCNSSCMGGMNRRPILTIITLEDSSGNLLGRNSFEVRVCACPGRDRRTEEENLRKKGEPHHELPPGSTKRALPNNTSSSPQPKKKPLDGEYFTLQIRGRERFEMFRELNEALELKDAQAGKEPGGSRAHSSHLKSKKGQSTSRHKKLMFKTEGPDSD
Chain of Tumour suppressor p53/oncoprotein Mdm2 (Q00987 whole entry): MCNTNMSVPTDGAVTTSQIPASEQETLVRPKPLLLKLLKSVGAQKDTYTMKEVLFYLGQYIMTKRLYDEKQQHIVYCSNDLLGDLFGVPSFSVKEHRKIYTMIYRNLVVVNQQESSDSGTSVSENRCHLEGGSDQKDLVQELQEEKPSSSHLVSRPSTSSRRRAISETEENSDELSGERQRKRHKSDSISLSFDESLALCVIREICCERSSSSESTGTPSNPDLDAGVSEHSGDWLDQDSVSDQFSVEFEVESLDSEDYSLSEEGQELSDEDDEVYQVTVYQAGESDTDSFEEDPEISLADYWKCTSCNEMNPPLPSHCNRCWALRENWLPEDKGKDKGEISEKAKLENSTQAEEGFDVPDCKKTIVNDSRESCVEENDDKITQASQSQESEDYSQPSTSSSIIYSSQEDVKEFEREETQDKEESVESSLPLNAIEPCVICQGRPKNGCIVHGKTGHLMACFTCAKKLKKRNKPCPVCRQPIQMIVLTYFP

## Clc1ccc(Cn2cnc(-c3ccccc3)c2-c2c[nH]c3cc(Cl)ccc23)cc1
[1]
  IC50: 0.2 µM
Protein Mdm4
  IC50: 22 µM

## O=C(NCCN1CCOCC1)c1[nH]c2cc(Cl)ccc2c1-c1c(-c2ccccc2)ncn1Cc1ccc(Cl)cc1
SJSA-1 [2]
  IC50: 7.3 µM
SJSA-1 [3]
  Ratio IC50: 3
Protein Mdm4
  IC50: 19 µM

## CC(C)CCn1cnc(-c2ccccc2)c1-c1c[nH]c2cc(Cl)ccc12
[1]
  IC50: 0.9 µM
Protein Mdm4
  IC50: 18 µM

## COc1ccc(Cn2c(C)nc(Cc3ccc(N)cc3)c2Cc2ccc(Cl)cc2)cc1
[1]
  IC50: 3.4 µM
Protein Mdm4
  IC50: 70 µM
